The nature of data set [1]: UV-Vis analysis of disulfide bond stability to heat and hydroxylamine. Particulars: with and without hydroxylamine solution; room temperature to 90° C., 15 minutes each; FIG. 18-19. Format: physicochemical. The procedure:
The solution was heated for 15 minutes at each temperature and allowed to cool to room temp before the spectra were taken. ˜1 mg of DTT was added to the solution to cleave the remaining disulfide bonds.

A short description of data set [2]: UV-Vis detection of chromophore release on heating liposomes (DPPC, DSPE-PEG2000, SATA-DSPE, PDP-PE). Format: physicochemical. Particulars: negative control without hydroxylamine, heated to 90° C.; FIG. 16. The procedure:
To deprotect the thiol group on the liposomes 100 μL of 0.5 M hydroxylamine with 25 mM EDTA pH 7.3 in PBS buffer were added to 50 μL of PBS buffer containing the liposomes. The mixture was gently mixed over an hour. The procedure for deprotection was taken from Pierce.
50 μL of liposomes formed by the second method were diluted into 650 μL of PBS. UV-Vis spectra were taken of PBS as a blank, the liposomes in PBS, and hydroxylamine solution in PBS all at room temperature.
The liposomes were heated to 40 to 90° C. at 10 degree intervals for 10 minutes each, upon cooling to room temperature UV-Vis spectra was taken; the spectra are shown in FIG. 15.
As a negative control, the same procedure was performed on the same concentration of liposomes and PBS without the hydroxylamine solution. After heating the negative control to 90° C. DTT, which serves to cleave any disulfide bonds present, was added to visualize the amount of PDP-PE that is present in the liposomes, as shown in FIG. 16.

The source of these data is patent US20100068260A1, “Methods, Compositions and Device for Directed and Controlled Heating and Release of Agents” (priority 2007, published 2010).

Regarding `c1ccc(SSc2ccccn2)nc1` [2,2′ dithiodipyridine, 2,2′-dithiodipyridine], the “reduction of disulfide on heating” value in data set [1] is on record as “reduction is occurring”.

On to `CCCCCCCCCCCCCCCC(=O)OC[C@H](COP(=O)(O)OCCNC(=O)CCSSc1ccccn1)OC(=O)CCCCCCCCCCCCCCC` [PDP-PE, N-[3-(2-Pyridyldithio)propionyl]-1,2-dipalmitoyl-sn-glycero-3-phosphoethanolamine], for which the “reduction of PDP-PE with only heat” value in data set [2] is given as “does not seem to be reduced”.
